Measurements from US8476408B2, “Unacylated ghrelin and analogs as therapeutic agents for vascular remodeling in diabetic patients and treatment of cardiovascular disease” (Alize Pharma SAS, priority 2008, dated 2013).
Where no end group is shown, it is not given here.

Assays:
[1] = test system: CAC; test: CAC senescence (acidic β-gal activity), cultured CAC; format: cell-based, human; settings: FIG. 2A
Experimental: (§1) Peripheral-blood mononuclear cells (PB-MNC) isolated by Fycoll Histopaque 1077 (Sigma) were resuspended in 20% FBS 199 Medium and plated on fibronectin-coated dishes (Biocoat, Becton Dickinson Labware) as described by Hill et al. (Ref. 19). Human UAG studies were performed on CAC recovered from normal donors and diabetic patients. The purity of sorted cells was assessed by FACS analysis (Ref. 20). For experiments, the isolated CAC were cultured under 5% CO2 at 37° C. for 4 days on 20 μg/ml fibronectin-coated dishes in EGM-2 medium containing 10% FBS, hydrocortisone, human Fibroblast Growth Factor, Vascular Endothelial Growth Factor, Insulin Growth Factor 1, ascorbic acid, human Epidermal Growth Factor, gentamicin and amphotericin-B (Cambrex, Walkersville, Md., USA) alone or in combination with 1 μM UAG and 1.2 mg/ml AGE. In selected experiments, isolated CAC were cultured in EBM-2 medium (Cambrex, Walkersville, Md., USA) supplemented with 10 ng/ml of IL-3. FACS was used to analyze their phenotype (anti-CD45, anti-CD31, anti-CD105, anti-CD14 antibodies were used) (Ref. 22).
CAC Senescence—Senescence was evaluated by acidic β-gal activity on CAC recovered from normal subjects cultured in EGM2 medium for 4 days with UAG or AGE+UAG and saline- or UAG-treated diabetic patients (Ref. 22). […] SA-β-gal-positive cells were counted manually by 3 independent investigators.

[2] = test system: CAC; test: CAC mobilization assay in diabetic and control mice; format: in vivo; settings: FIG. 4B
Experimental: Diabetic and control mice—Mice were divided in four groups. The plasma glucose and insulin determination for each group are reported. Sixteen 6 weeks old ob/ob mice (blood glucose, 600±45 mg/dL, insulin, 5.5±0.9 ng/ml); sixteen C56BL6/J wild type mice (blood glucose, 150±18.2 mg/dL, insulin, 1±0.05 ng/ml); ten 7 weeks old NOD/SCID mice (blood glucose, 164±12.9 mg/dL, insulin 1.2±0.12 ng/ml); ten 17 weeks old NOD/SCID mice (blood glucose, 536±36.3 mg/dL, insulin 4.85±0.74 ng/ml). Animal procedures conformed to the Guide for Care and Use of […] (National Institutes of Health publication no. 93-23, revised 1985).
Isolation and Culture of CAC from C57BU6J, C57BL/6J ob/ob mice and NOD/SCID mice—6 weeks old C57BL/6J (wt) and ob/ob mice, 7 and 17 weeks old NOD/SCID mice were purchased from Charles River Lab (Lecco, Italy). Animals were anesthetized by intraperitoneal injection with Avertin (100 mg/50ml ip). Blood samples were drawn from left ventricular, as described by Hoff (Ref. 27). Peripheral blood MNC were isolated by Ficoll density-gradient centrifugation. […]
Mobilization assay—Mice were treated for 12 hours with UAG or saline. CAC recovered and purified as above described, were put in culture and counted by three independent investigators. The technical ratio of CAC was calculated by comparing the numbers of CAC/μL of blood drawn from left ventricular.

[3] = test system: CAC; test: Expansion (S phase) of CAC recovered from treated subjects, cultured with IL-3; format: in vivo, human; settings: cells from treated diabetic patients cultured with IL-3; FIG. 3C
Experimental: as §1, with “FACS was used to analyze their phenotype (anti-CD45, anti-CD31, anti-CD105, anti-CD14 antibodies were used) (Ref. 22).” left out
Flow Cytometry—To analyze CAC cell-cycle progression, cells recovered from diabetic, healthy subjects, NOD/SCID, ob/ob and wt mice, were cultured in EBM-2 supplemented with IL-3 (10 ng/ml), FACS analysis was performed as previously described (Ref. 20). Cell surface molecules were evaluated by flow cytometry as previously described (Ref. 24). Frequency of marker-positive cells is expressed as mean±standard deviation (SD).

[4] = test system: cardiomyocytes; settings: Ref. 8; cited from earlier work
[5] = test system: CAC; test: Matrigel-plug assay of de novo vessel formation by CAC from treated diabetic patients; format: in vivo, SCID mice
Experimental: Matrigel-plug assay—For murine angiogenesis assay, untreated or UAG-treated CAC, obtained from type 2 diabetic patients, were counted and resuspended in DMEM (4×10^6 in 250 μL DMEM). Cells were chilled in ice, labelled with fluorescent dye carboxyfluorescein diacetate succinimidyl ester (CSFE, Molecular Probes), added to 250 μL Matrigel containing of IL-3 (100 ng/ml) at 4° C., and injected sc. in the abdominal paramedian region of 7 week old NOD/SCID mice (5 mice per group). After 15 days, mice were killed and Matrigel plugs were recovered, fixed in 10% buffered formalin and embedded in paraffin for immunohistochemistry.
Immunohistochemistry and immunofluorescence—For immunohistochemistry, sections from paraffin-embedded blocks of Matrigel plugs were collected onto poly-lysine-coated slides. Endogenous peroxidase activity was blocked with 6% H2O2 for 8 minutes at room temperature. To detect cells labelled with fluorescent dye CSFE, anti-Fluorescein/Oregon Green polyclonal Abs (Molecular Probes) were applied to slides overnight at 4° C. […] The percentage of positive cells was counted in 4 non-sequential sections for each experiment at ×40 magnification. […] The number of MHC II or HLA I positive vessels was determined by counting 10 randomly selected fields in three different samples.

[6] = test system: CAC membranes; test: Competition binding with [125I-Tyr4]-UAG on CAC membranes; design: species or system human; settings: 100 nM unlabelled competitor, radioligand 0.25 nM; FIG. 5A
Source text: The specific binding of [^125I-Tyr^4]-UAG (calculated as difference between binding in the absence, control, and in the presence of UAG) represented about 75% of the control value (P<0.001) and was detected either on fresh (0.25 and 0.26 fmol) or frozen-thawed (0.20 and 0.33 fmol) CAC membranes from two different cell preparations.

[7] = target: GHSR-1a (Homo sapiens, UniProt Q92847); settings: cited from earlier work
Sequence of GHSR-1a (Q92847 whole entry): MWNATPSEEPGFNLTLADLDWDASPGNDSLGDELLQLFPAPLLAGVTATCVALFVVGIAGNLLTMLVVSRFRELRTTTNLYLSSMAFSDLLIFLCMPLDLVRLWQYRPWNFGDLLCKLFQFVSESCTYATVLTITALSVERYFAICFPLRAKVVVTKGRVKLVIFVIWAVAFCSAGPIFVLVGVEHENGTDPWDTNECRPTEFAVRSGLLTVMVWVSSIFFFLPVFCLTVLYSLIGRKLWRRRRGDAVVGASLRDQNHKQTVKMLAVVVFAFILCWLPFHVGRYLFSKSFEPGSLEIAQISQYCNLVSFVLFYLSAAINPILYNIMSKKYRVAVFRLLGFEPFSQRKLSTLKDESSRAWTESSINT

Substance: 1-NH2Gly-Ser-Ser-Phe-Leu-Ser-Pro-Glu-His-Gln-Arg-Val-Gln-Gln-Arg-Lys-Glu-Ser-Lys-Lys-Pro-Pro-Ala-Lys-Leu-Gln-Pro-Arg-28 (GSSFLSPEHQRVQQRKESKKPPAKLQPR; ends and bridges not checked; listed as Homo sapiens) [UAG]
- number of senescent cells (SA-β-gal activity) ([1]; CAC cultured with UAG alone): reduce the number of senescent cells
- number of SA-β-gal positive cells ([1]; UAG added to AGE-cultured CAC): significant reduction in the number of SA-β-gal positive cells
- percentage of recovered cells ([2]; diabetic NOD/SCID mice): increase the percentage of recovered cells
- number of recovered cells relative to untreated wild type mice ([2]; ob/ob mice): fully restores the number of CAC to normal physiological levels
- cell expansion of recovered cells (S phase) [3]: underwent cell expansion
- experimentally-induced cell death [4]: inhibit experimentally-induced cell death
- formation of functional vessels by labelled CAC ([5]; CAC from UAG-treated diabetic patients, Matrigel plugs with IL-3, 15 days, FIG. 4E): formed functional vessels
- origin of neo-vessels (human HLA Class I vs mouse MHC II) ([5]; immunofluorescence of Matrigel plugs, FIG. 4F): majority of vessels are lined by human HLA Class I positive cells
- inhibition of binding of [125I-Tyr4]-UAG to CAC membranes [6]: inhibited
- binding to GHSR-1a [7]: fails to bind GHSR-1a
